According to patent US7384914B2 (Emisphere Technologies, Inc., priority 2003, dated 2008):

Legend:
Genotoxicity studies = settings: four genotoxicity studies
[1] = Pharmacokinetic studies of 4-CNAB after oral administration in monkeys; assay type: in vivo
[2] = tested on: primary molecular targets; test: Receptor binding screening assays
[3] = Open-label single-dose crossover study of oral Insulin/4-CNAB in type 2 diabetic subjects (fasting / standard meal); assay type: in vivo, human
Excerpt: In the first part of the study, twenty-four human diabetic subjects (patients) of age 35-70 years, with elevated fasting blood glucose levels but in otherwise good general health on the basis of a medical history, physical examination and clinical laboratory studies, participated in the study and were studied in the overnight-fasted state on two occasions, separated by an interval of at least 7 days.

[4] = Pharmacokinetic studies of 4-CNAB after oral administration in mice; assay type: in vivo
[5] = 14-day oral repeated dose toxicity study in monkeys; settings: rhesus monkey, in vivo, 14 days
Protocol: In toxicology studies, 4-CNAB doses from 400 mg to 2000 mg were evaluated.

[6] = Pharmacokinetic studies of 4-CNAB after oral administration in rats; assay type: in vivo

O=C(O)CCCNC(=O)c1ccc(Cl)cc1O [4-CNAB, monosodium N-(4-chlorosalicyloyl)-4-aminobutyrate]
genotoxicity findings (Genotoxicity studies): no positive findings | 4-CNAB absorption following oral administration [1]: absorbed rapidly | activity in primary molecular targets in receptor binding screening assays [2]: did not demonstrate potential activity | tolerability of 4-CNAB [3]: well tolerated | time of 4-CNAB concentration peak post administration ([3]; oral capsules): about 30 minutes | 4-CNAB absorption following oral administration [4]: absorbed rapidly | highest proposed dose of 2000 mg 4-CNAB in man (<30 mg/kg) lower than the NOAEL in monkeys [5]: 12-16 fold | 4-CNAB absorption following oral administration [6]: absorbed rapidly
